From patent publication US11730712B2, “Functionalized long-chain hydrocarbon mono- and di-carboxylic acids and derivatives thereof, and their use for the prevention or treatment of disease” (ESPERVITA THERAPEUTICS, INC., priority 2021, dated 2023)
Where “and” joins values, the source holds several entries; their conditions need not be identical. Equal values may be shown once.

Legend:
[1] = system: C57BL/6 mice with UUO; test: Murine unilateral ureter obstruction (UUO) renal fibrosis model; format: in vivo, mouse; conditions: 100 mg/kg daily oral gavage, 9 days after UUO
Method: Animal studies were carried out in accordance with the principles of laboratory animal care of the Canadian Council on Animal Care guidelines. Male C57BL/6 mice were obtained from Charles Rivers Laboratories. FIG. 13A summarizes the timeline for this experiment. UUO model was created as follows: male C57BL6J mice (8 weeks old from Charles River Laboratories) were anesthetized with 4% isofluorane and an anesthetic plane was maintained throughout surgery at 1.5-2% isofluorane with 1 L/min oxygen. A 0.5 cm incision was made longitudinally on the left flank. The left ureter and lower pole of the kidney was exposed, and the ureter was ligated with a […] in close proximity to the renal pelvis. A sham operation control group was created by surgical exposure of the left ureter and lower pole of the kidney followed by closure of the incision. Subcutaneous fluids were given (1.5 ml 0.9% NaCl) and the incision was closed with 4′0 silk sutures followed by staples for the skin. Starting the day of model creation, the animals were given a daily dose of either vehicle alone (sham surgery and UUO control, 1.5% CMC and 0.2% Tween-20) or vehicle containing Compound I-32 or Compound I-1 (at 100 mg/kg) by oral gavage for 9 days following surgery. At the end of the treatment period mice were anesthetized prior to euthanasia by bilateral thoraco-abdominal incision. Blood was collected by cardiac puncture, followed by kidney perfusion with cold saline through left ventricular cannulation. The left kidney was removed, a sample taken and fixed in formalin for histological analysis. Trichrome staining was done on formalin-fixed sections (4 μm) following deparaffinization according to manufacturers instructions (Sigma HT15-1KT). Images were quantified by measuring the percentage of positive area using Image J on micrographs captured at ×200 magnification using the BX41 Olympus microscope. Statistical analysis was performed using GraphPad Prism 8. A one-way ANOVA was used to determine significance. A p-value of less than or equal to 0.05 was used as the criterion of significance. This route was selected because it simulates oral administration to mammalian, including human, subjects and ensures that the correct dose of compound is ingested by each animal.
Immunohistochemistry. Formalin-fixed kidneys were embedded in paraffin, then sectioned at 4 μm. After deparaffinization, they were stained with Masson's trichrome to assess collagen content (Sigma Aldrich, catalogue no. HT15-1T), picrosirius red (PSR) to more specifically assess pathogenic collagens I and III (Polysciences, Inc., catalogue no. 24901-500), αSMA as a marker of activated, profibrotic fibroblasts (PIERCE, catalogue no. MA1-06110; 30 min steaming for antigen retrieval, antibody used at 1:5000 for 2 h at room temperature), CD3 to identify T-lymphocytes (Dako, catalogue no. A0452; 30 min steaming for antigen retrieval, antibody used at 1:500 overnight at 4° C.) and F4/80 to identify, macrophages (done by the McMaster Histology Facility). Slides were counterstained with hematoxylin, dehydrated twice with 90% ethanol, cleared twice with xylene, coverslipped with mounting media, and then left to dry overnight before imaging. Masson's trichrome, αSMA, CD3 and F4/80 were imaged under transmitted light and quantified using ImageJ. The Olympus IX81 fluorescence microscope driven by Metamorph was used to image and quantify PSR staining. Images were quantified by measuring the percentage of positive area. All micrographs were captured at ×20 magnification.

[2] = molecular target: T1, Human ACC2 (Homo sapiens, UniProt O00763); test: ACC2 enzymatic assay (ADP-Glo); format: biochemical; conditions: recombinant human ACC2 1 nM, 10 μM ATP, 10 μM acetyl CoA; Run 1-3; read-out: Compound IC50 (M) ACC2
T1 construct: FLAG (C); His (C); purchased BPS Biosciences 50201; host or cells: Baculovirus infected Sf9 cells
Method: Human ACC1 (Cat#50202 Lot #120830) and ACC2 (Cat #50201 Lot #160217) were obtained from BPS Biosciences, San Diego, Calif. 92121. Human ACC1 had C-terminal flag and His-tags with a MW of 270 KDa after purification from Baculovirus infected Sf9 cell expression system and came as a solution in 50 mM Tris-HCl, pH 8.0, 500 mM NaCl, 10% glycerol, 1 mM DTT, 100 μg/ml FLAG peptide with 70% purity. The stock concentration was 0.25 mg/ml corresponding to 0.926 μM. Human ACC2 was also purified from Baculovirus infected Sf9 expression system. […] The stock concentration was 0.1 mg/ml corresponding to 0.36 μM. The assay buffer for measuring the activity of ACC contained: 30 mM HEPES (pH 7.4), 2 mM MgCl2, 0.01% Brij35, 2 mM DTT, 1% DMSO (solvent for compound). For ACC1 and ACC2 assays, the following concentrations of substrate and cofactors were used: 12 mM NaHCO3, 10 μM acetyl CoA, 10 μM ATP, and 2 mM K-citrate. The recombinant human enzyme was used at 5 nM for ACC1 and 1 nM for ACC2. In brief, enzyme alone in the above buffer without substrate was used for background. All test materials were dissolved in 100% DMSO using acoustic technology (Echo550). The prepared solution was preincubated for 15 min followed by the addition of 5 μL/well of ADP standard. ATP was then added to start the reaction. The assay contents were spun and briefly shaken followed by incubation at room temperature for 1 h. At the end of completion of assay, 5 μL of ADP-Glo was added to each well to stop the reaction. The contents were mixed, spun and incubated at room temperature for 40 min followed by the addition of 10 μL/well of ADP detection reagent. The contents were spun, mixed and covered with plastic to measure luminescence. […] The light generated, measured in a luminometer, correlates to the amount of ADP generated in the ACC assay, which is indicative of ACC activity.
The enzyme concentrations for ACC1 and ACC2 were 5 nM and 1 nM, respectively.
Data represent nM or μM ADP produced, % Activity (relative to no inhibitor controls), and curve fits were performed by GraphPad Prism software. […]

T1 sequence (O00763 whole entry): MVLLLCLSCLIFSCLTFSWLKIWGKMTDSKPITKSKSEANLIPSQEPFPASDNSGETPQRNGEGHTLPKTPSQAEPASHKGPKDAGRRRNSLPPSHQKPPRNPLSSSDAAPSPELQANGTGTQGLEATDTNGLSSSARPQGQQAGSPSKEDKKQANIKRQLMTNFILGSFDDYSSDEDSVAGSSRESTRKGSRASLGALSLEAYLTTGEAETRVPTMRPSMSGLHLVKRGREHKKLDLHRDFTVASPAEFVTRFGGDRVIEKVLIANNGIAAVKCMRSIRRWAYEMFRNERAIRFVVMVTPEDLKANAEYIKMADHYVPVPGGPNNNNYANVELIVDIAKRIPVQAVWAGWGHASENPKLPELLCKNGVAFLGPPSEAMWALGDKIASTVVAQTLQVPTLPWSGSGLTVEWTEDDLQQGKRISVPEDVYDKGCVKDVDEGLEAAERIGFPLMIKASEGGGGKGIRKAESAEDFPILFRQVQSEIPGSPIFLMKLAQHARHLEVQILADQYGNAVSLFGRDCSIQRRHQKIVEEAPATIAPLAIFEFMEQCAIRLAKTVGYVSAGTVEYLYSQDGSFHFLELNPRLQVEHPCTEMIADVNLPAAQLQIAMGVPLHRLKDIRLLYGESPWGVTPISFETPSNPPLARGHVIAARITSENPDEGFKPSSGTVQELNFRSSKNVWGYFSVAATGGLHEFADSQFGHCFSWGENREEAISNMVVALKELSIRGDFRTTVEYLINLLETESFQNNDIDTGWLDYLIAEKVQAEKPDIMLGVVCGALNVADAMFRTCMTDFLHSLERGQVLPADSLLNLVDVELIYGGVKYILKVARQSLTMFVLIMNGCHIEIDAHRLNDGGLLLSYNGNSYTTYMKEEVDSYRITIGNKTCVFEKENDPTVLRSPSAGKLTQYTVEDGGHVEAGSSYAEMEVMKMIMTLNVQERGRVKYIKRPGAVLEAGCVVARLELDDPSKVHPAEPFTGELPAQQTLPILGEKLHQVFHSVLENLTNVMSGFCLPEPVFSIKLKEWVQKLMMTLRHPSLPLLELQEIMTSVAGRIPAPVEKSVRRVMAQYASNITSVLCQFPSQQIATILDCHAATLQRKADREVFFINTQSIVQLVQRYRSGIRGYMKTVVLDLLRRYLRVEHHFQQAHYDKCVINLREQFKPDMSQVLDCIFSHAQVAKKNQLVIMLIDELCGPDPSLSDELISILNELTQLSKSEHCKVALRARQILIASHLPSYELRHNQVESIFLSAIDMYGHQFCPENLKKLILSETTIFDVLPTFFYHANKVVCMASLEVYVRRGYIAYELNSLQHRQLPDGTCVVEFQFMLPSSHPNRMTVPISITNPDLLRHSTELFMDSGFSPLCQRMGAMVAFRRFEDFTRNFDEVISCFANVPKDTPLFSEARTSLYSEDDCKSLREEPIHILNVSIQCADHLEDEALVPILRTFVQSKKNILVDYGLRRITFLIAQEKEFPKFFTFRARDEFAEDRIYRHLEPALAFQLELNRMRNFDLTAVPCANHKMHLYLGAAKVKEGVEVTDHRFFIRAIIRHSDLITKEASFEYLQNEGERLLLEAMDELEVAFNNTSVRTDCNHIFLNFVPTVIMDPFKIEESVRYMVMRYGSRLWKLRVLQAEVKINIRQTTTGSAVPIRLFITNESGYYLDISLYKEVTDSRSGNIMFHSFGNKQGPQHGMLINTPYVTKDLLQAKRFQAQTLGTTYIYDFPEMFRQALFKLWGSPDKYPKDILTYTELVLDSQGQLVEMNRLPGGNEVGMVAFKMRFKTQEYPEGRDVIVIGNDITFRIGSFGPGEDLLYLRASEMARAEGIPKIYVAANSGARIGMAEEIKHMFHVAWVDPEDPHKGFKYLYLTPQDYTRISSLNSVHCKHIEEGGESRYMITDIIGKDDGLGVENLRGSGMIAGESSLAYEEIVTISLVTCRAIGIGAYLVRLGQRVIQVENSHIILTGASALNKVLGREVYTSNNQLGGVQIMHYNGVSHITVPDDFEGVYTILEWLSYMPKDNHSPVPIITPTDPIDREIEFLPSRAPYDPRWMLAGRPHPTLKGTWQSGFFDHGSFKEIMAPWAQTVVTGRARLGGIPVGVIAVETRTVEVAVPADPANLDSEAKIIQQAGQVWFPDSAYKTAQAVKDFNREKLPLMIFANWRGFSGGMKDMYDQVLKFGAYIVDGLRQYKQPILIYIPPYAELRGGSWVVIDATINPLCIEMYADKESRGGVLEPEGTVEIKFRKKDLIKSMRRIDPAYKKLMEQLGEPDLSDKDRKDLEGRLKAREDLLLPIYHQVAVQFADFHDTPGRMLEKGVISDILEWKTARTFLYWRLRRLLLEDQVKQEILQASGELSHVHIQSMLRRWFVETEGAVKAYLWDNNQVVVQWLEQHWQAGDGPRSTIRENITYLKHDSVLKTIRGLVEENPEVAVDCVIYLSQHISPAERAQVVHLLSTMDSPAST

Compound	T-lymphocyte infiltration (CD3 stain) [1]	UUO-induced increases in Trichrome and αSMA (renal fibrosis) [1]	macrophage infiltration (F4/80 stain) [1]	IC50 [2]
CC(C)(CCCCc1ccc(CCCCC(C)(C)C(=O)O)cc1)C(=O)O [Compound I-1, 6-[4-(5-carboxy-5-methylhexyl)-phenyl]-2,2-dimethylhexanoic acid]	no effect on T-lymphocytes	decreased	significantly reduced macrophage infiltration	
CC(C)(CCCCc1cccc(CCCCC(C)(C)C(=O)O)c1)C(=O)O [Compound I-32, 6-[3-(5-carboxy-5-methylhexyl)-phenyl]-2,2-dimethylhexanoic acid]	no effect on T-lymphocytes	trend to reduction	significantly reduced macrophage infiltration	
CC(C)(CCCCc1cccc(CCCCC(C)(C)C(=O)SCCNC(=O)CCNC(=O)[C@H](O)C(C)(C)COP(=O)(O)OP(=O)(O)OC[C@H]2O[C@@H](n3cnc4c(N)ncnc43)[C@H](O)[C@@H]2OP(=O)(O)O)c1)C(=O)O [Compound I-32-CoA, 6-[3-(5-Carboxy-5-methylhexyl)-phenyl]-2,2-dimethylhexanoic acid Coenzyme A Ester]				5.02e-06 M and 4.22e-06 M and 3.33e-06 M
CC(C)(CCCCc1ccc(CCCCC(C)(C)C(=O)SCCNC(=O)CCNC(=O)[C@H](O)C(C)(C)COP(=O)(O)OP(=O)(O)OC[C@H]2O[C@@H](n3cnc4c(N)ncnc43)[C@H](O)[C@@H]2OP(=O)(O)O)cc1)C(=O)O [Compound I-1-CoA, 6-[4-(5-carboxy-5-methylhexyl)-phenyl]-2,2-dimethylhexanoic acid Coenzyme A ester]				9.41e-06 M and 7.72e-06 M and 9.06e-06 M
